# Source: patent US20230089867A1, “CYCLIC PENTAMER COMPOUNDS AS PROPROTEIN CONVERTASE SUBTILISIN/KEXIN TYPE 9 (PCSK9) INHIBITORS FOR THE TREATMENT OF METABOLIC DISORDER” (Novartis AG, priority 2018, published 2023)
# Biological target: human PCSK9 (Homo sapiens, UniProt Q8NBP7)
# Experiment: PCSK9 ligand binding TR-FRET assay (interference with binding of human PCSK9 to human LDLR)
# Settings: for Max % inhibition: PCSK9 FRET assay, efficacy (Amax), 100% = 1 uM unlabeled human PCSK9, 0% = DMSO; for IC50: TR-FRET, human PCSK9 Alexa Fluor 647 / human LDLR extracellular domain-Europium Kryptate, read-out: PCSK9 FRET Assay IC50
# Summary of the method: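 Threefold compound dilutions were pre-incubated 30 min with PCSK9, after which 4 nM Europium Kryptate-tagged human LDLR ectodomain was added for a further 2 h.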
# Sequence of human PCSK9 (Q8NBP7 153-692): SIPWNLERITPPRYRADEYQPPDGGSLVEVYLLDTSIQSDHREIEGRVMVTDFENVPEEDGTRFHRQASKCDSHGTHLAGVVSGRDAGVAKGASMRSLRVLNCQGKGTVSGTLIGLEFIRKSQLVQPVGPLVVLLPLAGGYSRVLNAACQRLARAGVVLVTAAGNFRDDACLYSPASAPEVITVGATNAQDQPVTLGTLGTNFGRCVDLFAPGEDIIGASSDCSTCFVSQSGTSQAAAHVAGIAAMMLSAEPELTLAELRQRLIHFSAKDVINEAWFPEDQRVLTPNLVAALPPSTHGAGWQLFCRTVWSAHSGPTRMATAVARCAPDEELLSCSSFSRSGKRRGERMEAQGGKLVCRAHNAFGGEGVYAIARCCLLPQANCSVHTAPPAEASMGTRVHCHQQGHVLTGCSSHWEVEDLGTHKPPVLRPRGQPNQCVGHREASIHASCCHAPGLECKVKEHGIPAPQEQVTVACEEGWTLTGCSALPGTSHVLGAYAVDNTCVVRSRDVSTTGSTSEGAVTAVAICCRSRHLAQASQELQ
# Sequence of human PCSK9 (Q8NBP7 31-152 partner limits assumed): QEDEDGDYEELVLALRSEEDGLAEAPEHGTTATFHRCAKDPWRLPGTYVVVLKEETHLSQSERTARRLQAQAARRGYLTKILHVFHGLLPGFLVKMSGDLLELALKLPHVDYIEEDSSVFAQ
Structure (SMILES),Max % inhibition,IC50
"COC[C@@H]1NC(=O)[C@H](C)N(Cc2ccc(Cl)cc2Oc2ccc(-c3cnc(CN(C)C)n3C)cc2)C(=O)C[C@@H](Cc2ccc(F)cn2)C(=O)N(C)[C@@H](C)CNC(=O)C[C@H](Cc2ccc(Cl)cc2)N(C)C1=O [Compound 45, (2S,5S,8S,13S,16R)-1-(4-chloro-2-(4-(2-((dimethylamino)methyl)-1-methyl-1H-imidazol-5-yl)phenoxy)benzyl)-8-(4-chlorobenzyl)-16-((5-fluoropyridin-2-yl)methyl)-5-(methoxymethyl)-2,7,13,14-tetramethyl-1,4,7,11,14-pentaazacyclooctadecane-3,6,10,15,18-pentaone]",95.96%,2.2 nM
"CCOc1ncc(-c2ccc(Oc3cc(Cl)ccc3CN3C(=O)C[C@@H](Cc4ccccc4)C(=O)N(C)[C@@H](C)CNC(=O)C[C@H](Cc4ccc(Cl)cc4)N(C)C(=O)[C@H](COC)NC(=O)[C@@H]3C)cc2)n1C [Compound 68, (2S,5S,8S,13S,16R)-16-benzyl-1-(4-chloro-2-(4-(2-ethoxy-1-methyl-1H-imidazol-5-yl)phenoxy)benzyl)-8-(4-chlorobenzyl)-5-(methoxymethyl)-2,7,13,14-tetramethyl-1,4,7,11,14-pentaazacyclooctadecane-3,6,10,15,18-pentaone]",77.84%,30.5 nM
"COC[C@@H]1NC(=O)[C@H](C)N(Cc2ccc(Cl)cc2Oc2ccc(-c3cnc(CN4CC[C@@H](F)C4)n3C)cc2)C(=O)C[C@@H](Cc2ccccc2)C(=O)N(C)[C@@H](C)CNC(=O)C[C@H](Cc2ccc(Cl)cc2)N(C)C1=O [Compound 60, (2S,5S,8S,13S,16R)-16-benzyl-1-(4-chloro-2-(4-(2-(((R)-3-fluoropyrrolidin-1-yl)methyl)-1-methyl-1H-imidazol-5-yl)phenoxy)benzyl)-8-(4-chlorobenzyl)-5-(methoxymethyl)-2,7,13,14-tetramethyl-1,4,7,11,14-pentaazacyclooctadecane-3,6,10,15,18-pentaone]",82.23%,2.9 nM
"CCc1ccc(CN2C(=O)C[C@@H](Cc3ccccc3)C(=O)N(C)[C@H]3CCCC[C@@H]3NC(=O)C[C@H](Cc3ccc(Cl)cc3)N(C)C(=O)[C@H](COC)NC(=O)[C@@H]2C)c(Oc2ccc(-c3cnc(CN4CC5(COC5)C4)n3C)cc2)c1 [Compound 23, (4S,7S,10S,14R,16aS,20aS)-11-(2-(4-(2-(2-oxa-6-azaspiro[3.3]heptan-6-ylmethyl)-1-methyl-1H-imidazol-5-yl)phenoxy)-4-ethylbenzyl)-14-benzyl-4-(4-chlorobenzyl)-7-(methoxymethyl)-5,10,16-trimethylhexadecahydrobenzo[l][1,4,7,11,14]pentaazacyclooctadecine-2,6,9,12,15(3H)-pentaone]",96.76%,2.2 nM
"COC[C@@H]1NC(=O)[C@H](C)N(Cc2ccc(Cl)cc2Oc2ccc(-c3cnc(CN(C)C)n3C)cc2)C(=O)C[C@@H](Cc2ccccc2)C(=O)N(C)[C@@H]2C[C@@H]2NC(=O)C[C@H](Cc2ccc(Cl)cc2)N(C)C1=O [Compound 77, (1S,5S,8S,11S,15R,18R)-15-benzyl-12-(4-chloro-2-(4-(2-((dimethylamino)methyl)-1-methyl-1H-imidazol-5-yl)phenoxy)benzyl)-5-(4-chlorobenzyl)-8-(methoxymethyl)-6,11,17-trimethyl-2,6,9,12,17-pentaazabicyclo[16.1.0]nonadecane-3,7,10,13,16-pentaone]",104.08%,9 nM
"COC[C@@H]1NC(=O)[C@H](C)N(Cc2ccc(Cl)cc2Oc2ccc(-c3cnc(C4CCCN4C)n3C)cc2)C(=O)C[C@@H](Cc2ccccc2)C(=O)N(C)[C@@H](C)CNC(=O)C[C@H](Cc2ccc(Cl)cc2)N(C)C1=O (stereo partly drawn) [Compound 28, (2S,5S,8S,13S,16R)-16-benzyl-1-(4-chloro-2-(4-(1-methyl-2-(1-methylpyrrolidin-2-yl)-1H-imidazol-5-yl)phenoxy)benzyl)-8-(4-chlorobenzyl)-5-(methoxymethyl)-2,7,13,14-tetramethyl-1,4,7,11,14-pentaazacyclooctadecane-3,6,10,15,18-pentaone]",102.04%,3.6 nM
"COC[C@@H]1NC(=O)[C@H](C)N(Cc2ccc(Cl)cc2Oc2ccc(-c3cnc(CN4CCCC4)n3C)cc2)C(=O)C[C@@H](Cc2ccc(F)cc2F)C(=O)N(C)[C@@H](C)CNC(=O)C[C@H](Cc2ccc(Cl)cc2)N(C)C1=O [Compound 22, (2S,5S,8S,13S,16R)-1-(4-chloro-2-(4-(1-methyl-2-(pyrrolidin-1-ylmethyl)-1H-imidazol-5-yl)phenoxy)benzyl)-8-(4-chlorobenzyl)-16-(2,4-difluorobenzyl)-5-(methoxymethyl)-2,7,13,14-tetramethyl-1,4,7,11,14-pentaazacyclooctadecane-3,6,10,15,18-pentaone]",98.82%,1.1 nM
"COC[C@@H]1NC(=O)[C@H](CCCN(C)C)N(Cc2ccc(Cl)cc2Oc2ccc(-c3cnc(CN(C)C)n3C)cc2)C(=O)C[C@@H](Cc2ccccc2)C(=O)N(C)[C@@H](C)[C@H](C)NC(=O)C[C@H](Cc2ccc(Cl)cc2)N(C)C1=O [Compound 90, (2S,5S,8S,12S,13S,16R)-16-benzyl-1-(4-chloro-2-(4-(2-((dimethylamino)methyl)-1-methyl-1H-imidazol-5-yl)phenoxy)benzyl)-8-(4-chlorobenzyl)-2-(3-(dimethylamino)propyl)-5-(methoxymethyl)-7,12,13,14-tetramethyl-1,4,7,11,14-pentaazacyclooctadecane-3,6,10,15,18-pentaone]",101.52%,2.1 nM

# Continued, values first:
Max % inhibition,IC50,Structure (SMILES)
90.08%,705 nM,"C[C@H]1CNC(=O)C[C@H](Cc2ccc(Cl)cc2)N(C)C(=O)[C@H](CCC(=O)O)NC(=O)[C@H](C)N(Cc2ccc(Cl)cc2Oc2ccc(-c3cnc(CN(C)C)n3C)cc2)C(=O)C[C@@H](Cc2ccccc2)C(=O)N1C [Compound 233, 3-((2S,5S,8S,13S,16R)-16-benzyl-1-(4-chloro-2-(4-(2-((dimethylamino)methyl)-1-methyl-1H-imidazol-5-yl)phenoxy)benzyl)-8-(4-chlorobenzyl)-2,7,13,14-tetramethyl-3,6,10,15,18-pentaoxo-1,4,7,11,14-pentaazacyclooctadecan-5-yl)propanoic acid]"
104.03%,1.3 nM,"COC[C@@H]1NC(=O)[C@H](CCC(=O)O)N(Cc2ccc(Cl)cc2Oc2ccc(-c3cnc(CN(C)C)n3C)cc2)C(=O)C[C@@H](Cc2ccccc2)C(=O)N(C)[C@H]2CCCC[C@@H]2NC(=O)C[C@H](Cc2ccc(Cl)cc2)N(C)C1=O [Compound 245, 3-((4S,7S,10S,14R,16aS,20aS)-14-benzyl-11-(4-chloro-2-(4-(2-((dimethylamino)methyl)-1-methyl-1H-imidazol-5-yl)phenoxy)benzyl)-4-(4-chlorobenzyl)-7-(methoxymethyl)-5,16-dimethyl-2,6,9,12,15-pentaoxodocosahydrobenzo[l][1,4,7,11,14]pentaazacyclooctadecin-10-yl)propanoic acid]"
89.62%,1 nM,"COC[C@@H]1NC(=O)[C@H](C)N(Cc2ccc(Cl)cc2Oc2ccc(-c3cnc(CN4CCCC4)n3C)c(C)c2)C(=O)C[C@@H](Cc2ccccc2)C(=O)N(C)[C@@H](C)CNC(=O)C[C@H](Cc2ccc(Cl)cc2)N(C)C1=O [Compound 281, (2S,5S,8S,13S,16R)-16-benzyl-1-(4-chloro-2-(3-methyl-4-(1-methyl-2-(pyrrolidin-1-ylmethyl)-1H-imidazol-5-yl)phenoxy)benzyl)-8-(4-chlorobenzyl)-5-(methoxymethyl)-2,7,13,14-tetramethyl-1,4,7,11,14-pentaazacyclooctadecane-3,6,10,15,18-pentaone]"
94.32%,1.1 nM,"COC[C@@H]1NC(=O)[C@H](CCN2CCOCC2)N(Cc2ccc(Cl)cc2Oc2ccc(-c3cnc(CN(C)C)n3C)cc2)C(=O)C[C@@H](Cc2ccccc2)C(=O)N(C)[C@H]2CCCC[C@@H]2NC(=O)C[C@H](Cc2ccc(Cl)cc2)N(C)C1=O [Compound 101, (4S,7S,10S,14R,16aS,20aS)-14-benzyl-11-(4-chloro-2-(4-(2-((dimethylamino)-methyl)-1-methyl-1H-imidazol-5-yl)phenoxy)benzyl)-4-(4-chlorobenzyl)-7-(methoxymethyl)-5,16-dimethyl-10-(2-morpholinoethyl)hexadecahydrobenzo-[l][1,4,7,11,14]pentaazacycloocta-decine-2,6,9,12,15(3H)-pentaone]"
90.76%,8.4 nM,"COC[C@@H]1NC(=O)[C@H](C)N(Cc2ccc(Cl)cc2Oc2ccc(-c3cncc(C4CCNCC4)c3)cc2)C(=O)C[C@@H](Cc2ccccc2)C(=O)N(C)[C@@H](C)CNC(=O)C[C@H](Cc2ccc(Cl)cc2)N(C)C1=O [Compound 137, (2S,5S,8S,13S,16R)-16-benzyl-1-(4-chloro-2-(4-(5-(piperidin-4-yl)pyridin-3-yl)phenoxy)benzyl)-8-(4-chlorobenzyl)-5-(methoxymethyl)-2,7,13,14-tetramethyl-1,4,7,11,14-pentaazacyclooctadecane-3,6,10,15,18-pentaone]"
105.41%,5.4 nM,"COC[C@@H]1NC(=O)[C@H](C)N(Cc2ccc(Cl)cc2Oc2ccc(-c3cnc(CN(C)C)n3C)cc2)C(=O)C[C@@H](CC23CC(C2)C3)C(=O)N(C)[C@H]2CCCC[C@@H]2NC(=O)C[C@H](Cc2ccc(Cl)cc2)N(C)C1=O [Compound 100, (4S,7S,10S,14R,16aS,20aS)-14-(bicyclo[1.1.1]pentan-1-ylmethyl)-11-(4-chloro-2-(4-(2-((dimethylamino)methyl)-1-methyl-1H-imidazol-5-yl)phenoxy)benzyl)-4-(4-chlorobenzyl)-7-(methoxymethyl)-5,10,16-trimethylhexadecahydrobenzo[l][1,4,7,11,14]pentaazacyclooctadecine-2,6,9,12,15(3H)-pentaone]"
